From US11370798B2 (Vertex Pharmaceuticals Incorporated, priority 2012, dated 2022)

Tested on: HCT116 colorectal cancer cells
Experiment: Cisplatin sensitization assay (96 h cell viability MTS);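 also: Test-compound concentration that lowers the Cisplatin IC50 by a set fold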
Type: cell-based
Conditions: compound and Cisplatin added simultaneously, Cisplatin sensitization value
Method in brief: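 Viability read by MTS (1 h at 37° C) after 96 h co-exposure at 37° C, 5% CO2. Test compound and cisplatin were dosed simultaneously in a full concentration matrix, each 2-fold serially diluted from 10 μM final; sensitization values binned in μM.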

Row | SMILES | Cisplatin Sensitization Assay
1 | CN1CCN(C(=O)C2(C)CCN(c3c(F)cncc3NC(=O)c3c(N)nn4cc(F)cnc34)CC2)CC1 [I-G-54, 2-amino-6-fluoro-N-(5-fluoro-4-(4-methyl-4-(4-methylpiperazine-1-carbonyl)piperidin-1-yl)pyridin-3-yl)pyrazolo[1,5-a]pyrimidine-3-carboxamide] | +++ (Cisplatin sensitization value of <0.02 μM)
2 | Cc1cncc(NC(=O)c2c(N)nn3cc(F)cnc23)c1N1CCC(C(=O)N2CCN(C)CC2)CC1 [I-G-55, 2-amino-6-fluoro-N-(5-methyl-4-(4-(4-methylpiperazine-1-carbonyl)piperidin-1-yl)pyridin-3-yl)pyrazolo[1,5-a]pyrimidine-3-carboxamide] | +++ (Cisplatin sensitization value of <0.02 μM)
3 | Cc1cncc(NC(=O)c2c(N)nn3cc(F)cnc23)c1N1CCC(C(=O)N2CCNCC2)CC1 [I-G-56, 2-amino-6-fluoro-N-(5-methyl-4-(4-(piperazine-1-carbonyl)piperidin-1-yl)pyridin-3-yl)pyrazolo[1,5-a]pyrimidine-3-carboxamide] | +++ (Cisplatin sensitization value of <0.02 μM)
4 | Nc1nn2cc(F)cnc2c1C(=O)Nc1cncc(F)c1N1CCC(C(=O)N2CC(N3CCCCC3)C2)CC1 [I-G-57, 2-amino-6-fluoro-N-(5-fluoro-4-(4-(3-(piperidin-1-yl)azetidine-1-carbonyl)piperidin-1-yl)pyridin-3-yl)pyrazolo[1,5-a]pyrimidine-3-carboxamide] | +++ (Cisplatin sensitization value of <0.02 μM)
5 | Nc1nn2cc(F)cnc2c1C(=O)Nc1cncc(F)c1N1CCC(C(=O)N2CC[C@H](N3CCCC3)C2)CC1 [I-G-58, (S)—N-(4-(4-([1,3′-bipyrrolidine]-1′-carbonyl)piperidin-1-yl)-5-fluoropyridin-3-yl)-2-amino-6-fluoropyrazolo[1,5-a]pyrimidine-3-carboxamide] | +++ (Cisplatin sensitization value of <0.02 μM)
6 | Nc1nn2cc(F)cnc2c1C(=O)Nc1cncc(F)c1N1CCC(C(=O)N2CCC(N3CCCC3)CC2)CC1 [I-G-59, 2-amino-6-fluoro-N-(5-fluoro-4-(4-(4-(pyrrolidin-1-yl)piperidine-1-carbonyl)piperidin-1-yl)pyridin-3-yl)pyrazolo[1,5-a]pyrimidine-3-carboxamide] | +++ (Cisplatin sensitization value of <0.02 μM)
7 | Nc1nn2cc(F)cnc2c1C(=O)Nc1cncc(F)c1N1CCC(C(=O)N2CCC(N3CCCCC3)CC2)CC1 [I-G-60, N-(4-(4-([1,4′-bipiperidine]-1′-carbonyl)piperidin-1-yl)-5-fluoropyridin-3-yl)-2-amino-6-fluoropyrazolo[1,5-a]pyrimidine-3-carboxamide] | +++ (Cisplatin sensitization value of <0.02 μM)
8 | C[C@H]1CN(C(=O)C2CCN(c3c(F)cncc3NC(=O)c3c(N)nn4cc(F)cnc34)CC2)CCN1 [I-G-61, (S)-2-amino-6-fluoro-N-(5-fluoro-4-(4-(3-methylpiperazine-1-carbonyl)piperidin-1-yl)pyridin-3-yl)pyrazolo[1,5-a]pyrimidine-3-carboxamide] | +++ (Cisplatin sensitization value of <0.02 μM)
9 | Nc1nn2cc(F)cnc2c1C(=O)Nc1cncc(F)c1N1CCC(C(=O)N2CCNC3CC32)CC1 (stereo not drawn) [I-G-62, N-(4-(4-(2,5-diazabicyclo[4.1.0]heptane-2-carbonyl)piperidin-1-yl)-5-fluoropyridin-3-yl)-2-amino-6-fluoropyrazolo[1,5-a]pyrimidine-3-carboxamide] | +++ (Cisplatin sensitization value of <0.02 μM)
10 | CC1(O)CN(C(=O)C2CCN(c3c(F)cncc3NC(=O)c3c(N)nn4cc(F)cnc34)CC2)C1 [I-G-63, 2-amino-6-fluoro-N-(5-fluoro-4-(4-(3-hydroxy-3-methylazetidine-1-carbonyl)piperidin-1-yl)pyridin-3-yl)pyrazolo[1,5-a]pyrimidine-3-carboxamide] | +++ (Cisplatin sensitization value of <0.02 μM)
11 | Nc1nn2cc(F)cnc2c1C(=O)Nc1cncc(F)c1N1CCC(C(=O)N2CCC(N3CCCCC3)C2)CC1 (stereo not drawn) [I-G-64, 2-amino-6-fluoro-N-(5-fluoro-4-(4-(3-(piperidin-1-yl)pyrrolidine-1-carbonyl)piperidin-1-yl)pyridin-3-yl)pyrazolo[1,5-a]pyrimidine-3-carboxamide] | +++ (Cisplatin sensitization value of <0.02 μM)
12 | CN1CCN(C(=O)C2CCN(c3c(F)cncc3NC(=O)c3c(N)nn4cc(F)cnc34)CC2)C2CC21 (stereo not drawn) [I-G-65, 2-amino-6-fluoro-N-(5-fluoro-4-(4-(5-methyl-2,5-diazabicyclo[4.1.0]heptane-2-carbonyl)piperidin-1-yl)pyridin-3-yl)pyrazolo[1,5-a]pyrimidine-3-carboxamide] | +++ (Cisplatin sensitization value of <0.02 μM)
13 | Nc1nn2cc(F)cnc2c1C(=O)Nc1cncc(Cl)c1N1CCC(C(=O)N2CCN3CCC2CC3)CC1 [I-G-66, N-(4-(4-(1,4-diazabicyclo[3.2.2]nonane-4-carbonyl)piperidin-1-yl)-5-chloropyridin-3-yl)-2-amino-6-fluoropyrazolo[1,5-a]pyrimidine-3-carboxamide] | +++ (Cisplatin sensitization value of <0.02 μM)
14 | Nc1nn2cc(F)cnc2c1C(=O)Nc1cncc(F)c1N1CCC(C(=O)N2CC(F)C2)CC1 [I-G-67, 2-amino-6-fluoro-N-(5-fluoro-4-(4-(3-fluoroazetidine-1-carbonyl)piperidin-1-yl)pyridin-3-yl)pyrazolo[1,5-a]pyrimidine-3-carboxamide] | +++ (Cisplatin sensitization value of <0.02 μM)
15 | Nc1nn2cc(F)cnc2c1C(=O)Nc1cncc(F)c1N1CCC(C(=O)N2CCC(N3CCC3)CC2)CC1 [I-G-68, 2-amino-N-(4-(4-(4-(azetidin-1-yl)piperidine-1-carbonyl)piperidin-1-yl)-5-fluoropyridin-3-yl)-6-fluoropyrazolo[1,5-a]pyrimidine-3-carboxamide] | +++ (Cisplatin sensitization value of <0.02 μM)
16 | Nc1nn2cc(F)cnc2c1C(=O)Nc1cncc(Cl)c1N1CCC(C(=O)N2CCN3CCC2C3)CC1 (stereo not drawn) [I-G-69, N-(4-(4-(1,4-diazabicyclo[3.2.1]octane-4-carbonyl)piperidin-1-yl)-5-chloropyridin-3-yl)-2-amino-6-fluoropyrazolo[1,5-a]pyrimidine-3-carboxamide] | +++ (Cisplatin sensitization value of <0.02 μM)
17 | Nc1nn2cc(F)cnc2c1C(=O)Nc1cncc(F)c1N1CCC(C(=O)N2CC(F)(F)C2)CC1 [I-G-73, 2-amino-N-(4-(4-(3,3-difluoroazetidine-1-carbonyl)piperidin-1-yl)-5-fluoropyridin-3-yl)-6-fluoropyrazolo[1,5-a]pyrimidine-3-carboxamide] | +++ (Cisplatin sensitization value of <0.02 μM)
18 | COC1(C)CN(C(=O)C2CCN(c3c(F)cncc3NC(=O)c3c(N)nn4cc(F)cnc34)CC2)C1 [I-G-75, 2-amino-6-fluoro-N-(5-fluoro-4-(4-(3-methoxy-3-methylazetidine-1-carbonyl)piperidin-1-yl)pyridin-3-yl)pyrazolo[1,5-a]pyrimidine-3-carboxamide] | +++ (Cisplatin sensitization value of <0.02 μM)
